Holding throughout (assay type): biochemical
One assay has as its target T1, α-amylase (Homo sapiens, UniProt P0DUB6).
T1 sequence (P0DUB6 16-511): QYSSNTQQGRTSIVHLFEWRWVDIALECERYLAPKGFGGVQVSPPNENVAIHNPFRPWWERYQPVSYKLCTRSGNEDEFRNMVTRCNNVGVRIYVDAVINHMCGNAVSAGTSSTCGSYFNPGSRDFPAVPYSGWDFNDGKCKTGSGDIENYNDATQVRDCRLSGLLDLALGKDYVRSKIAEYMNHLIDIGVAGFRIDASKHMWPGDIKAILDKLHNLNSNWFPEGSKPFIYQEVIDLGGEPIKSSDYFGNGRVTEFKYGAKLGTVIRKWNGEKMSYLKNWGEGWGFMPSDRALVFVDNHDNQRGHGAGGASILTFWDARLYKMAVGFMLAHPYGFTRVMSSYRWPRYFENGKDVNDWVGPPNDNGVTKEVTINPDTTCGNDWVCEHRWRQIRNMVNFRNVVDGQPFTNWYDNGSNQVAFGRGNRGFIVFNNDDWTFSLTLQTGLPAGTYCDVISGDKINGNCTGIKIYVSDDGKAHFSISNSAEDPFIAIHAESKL
The assay is described as follows: α-Amylase inhibition saliva screening (chromogenic substrate, 405 nm). As to conditions: for Ave (absorbance at 405 nm) / individual reading (absorbance at 405 nm): saliva; for Ave (absorbance at 405 nm): 5,000 ppm; for individual reading (absorbance at 405 nm): test compound prepared at 5,000 ppm, 37° C.; for α-Amylase inhibition: 100% saliva samples, FIG. 11. From the text: Further details of these five compounds may also be seen in Table 4.

A further assay has as its system peroxidase. The assay is described as follows: Peroxidase assay in saliva (Amplex Red). The conditions noted are these: 500 ppm; pooled or unpooled saliva; 30 minutes; FIGS. 26-29.
Another assay has as its target T2, Lysozyme (Homo sapiens, UniProt P61626).
T2 sequence (P61626 19-148): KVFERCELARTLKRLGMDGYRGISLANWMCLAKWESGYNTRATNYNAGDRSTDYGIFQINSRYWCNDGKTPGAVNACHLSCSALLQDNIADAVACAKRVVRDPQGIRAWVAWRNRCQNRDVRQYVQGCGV
The assay is described as follows: Lysozyme inhibition saliva screening (fluorescein-labeled Micrococcus lysodeikticus). As to conditions: 100% saliva samples (data not shown). An excerpt:
Further details of these five compounds may also be seen in Table 5.

The values below come from patent publication US8293537B2, “Systems and methods for hemoglobin analysis” (priority 2010, dated 2012).

Several values for one entry are separate records, joined by “and”; a condition that tells them apart may be missing. Identical values can stand only once.

Method for peroxidase: To determine the effect of various GRAS compounds as inhibitors of peroxidase activity, a standard assay using Amplex® Red (Life Technologies), which releases a fluorescent oxidation product.
The test compounds, such as GRAS materials or cocktails of same, were prepared at a concentration of 500 ppm in distilled water. For the assay, 50 μl samples of test compounds were mixed with 20-30 μl of saliva (either “pooled” or “unpooled”) prior to the addition of Amplex® Red. […] Reactions were allowed to run for 30 minutes during these assays.

Consider Aluminum sulfate hydrate [CDI-34], for which the “Ave (absorbance at 405 nm)” value at α-amylase (0 min) is given as 0.40; on α-amylase (5 min), 0.50; on α-amylase (15 min), 0.56. For the same molecule, the “individual reading (absorbance at 405 nm)” value at α-amylase (0 min, sulfate hydrate) was 0.40 (2×) and 0.36 and 0.45; at α-amylase (5 min, sulfate hydrate), 0.49 and 0.50 (2×) and 0.52; at α-amylase (15 min, sulfate hydrate) it was 0.53 and 0.61 and 0.54 and 0.56. Further, at α-amylase, the α-Amylase inhibition result is given as “shown to inhibit α-Amylase”.
Consider `COc1ccc(O)c(C(C)(C)C)c1` [CDI-39, 3-tert--butyl-hydroxyanisole], for which the peroxidase inhibition entry with peroxidase is listed as “showed significant peroxidase inhibition capabilities”.
For `O=C(O)c1ccccc1` [CDI-40, Benzoic acid], the Lysozyme inhibition result at Lysozyme was “shown to inhibit Lysozyme”.
As for `Cn1c(=O)c2c(ncn2C)n(C)c1=O` [CDI-33, Caffeine], the peroxidase inhibition entry in the assay on peroxidase is reported as “showed significant peroxidase inhibition capabilities”.
On to “Aluminum potassium sulfate dodecahydrate [CDI-42]”, for which the “Ave (absorbance at 405 nm)” value at α-amylase (0 min) amounted to 0.92. Besides, the “individual reading (absorbance at 405 nm)” value was 0.80 and 1.13 and 0.90 and 0.84 on α-amylase (0 min); 1.65 and 2.15 and 1.80 and 1.81 on α-amylase (5 min); 2.37 and 2.38 and 2.25 and 2.17 on α-amylase (15 min). Moreover, the α-Amylase inhibition result on α-amylase is recorded as “shown to inhibit α-Amylase”. For the same molecule, in the assay on peroxidase, the peroxidase inhibition entry was “showed significant peroxidase inhibition capabilities”.
